Each compound was assayed against T1, Bile acid receptor (Homo sapiens, UniProt Q96RI1) (assay: In Vitro FXR Assay (TK): SeedingCV-1 cells were seeded at a density of 2,000,000 cells in a T175 flask with DMEM+10% charcoal double-stripped FBS and incubated at 37° C. in 5% CO2 for 18 h (O/N).TransfectionAfter 18 h of incubation, the medium in the T175 flask was changed with fresh DMEM+10% charcoal super-stripped serum. In a polypropylene tube, 2500 μL OptiMEM (Life Technologies, Cat #31985-062) was combined with expression plasmids for hFXR, hRXR, TK-ECRE-luc and pCMX-YFP. The tube was then briefly vortexed and incubated at room temperature for 5 minutes. Transfection reagent (X-tremeGENE HP from Roche, Cat #06 366 236 001) was added to the OptiMEM/plasmid mixture vortexed and incubated at room temperature for 20 minutes. Following incubation, the transfection reagent/DNA mixture complex was added to cells in the T175 flask and the cells were incubated at 37° C. in 5% CO2 for 18 h (O/N).Test CompoundsCompounds were serially diluted in DMSO and added to transfected CV-1 cells. The cells were then incubated for 18 hrs. The next day cells were lysed and examined for luminescence.).
T1 sequence (Q96RI1 whole entry): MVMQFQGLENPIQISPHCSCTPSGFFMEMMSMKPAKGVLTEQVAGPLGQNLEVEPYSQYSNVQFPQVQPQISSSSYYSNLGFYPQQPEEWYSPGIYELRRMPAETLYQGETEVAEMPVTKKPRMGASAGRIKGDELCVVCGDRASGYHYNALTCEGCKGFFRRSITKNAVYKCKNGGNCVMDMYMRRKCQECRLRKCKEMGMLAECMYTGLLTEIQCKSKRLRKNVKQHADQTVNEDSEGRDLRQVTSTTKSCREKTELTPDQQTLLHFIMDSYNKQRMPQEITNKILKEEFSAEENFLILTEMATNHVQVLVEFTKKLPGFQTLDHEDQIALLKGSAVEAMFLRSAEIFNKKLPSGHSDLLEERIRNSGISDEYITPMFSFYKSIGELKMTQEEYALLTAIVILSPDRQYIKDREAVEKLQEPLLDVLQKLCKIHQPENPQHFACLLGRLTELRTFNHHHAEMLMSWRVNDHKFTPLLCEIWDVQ
Work on `COC(=O)c1ccc2c(N(C[C@H]3CC[C@H](c4ccc(OC)c(C)c4)CC3)C(=O)C3CCCCC3)nccc2c1` yielded an EC50 of under 1 µM. Work on `COC(=O)c1ccc2c(N(C[C@H]3CC[C@H](c4cccc(OC)c4)CC3)C(=O)CC(C)(C)C)nccc2c1` yielded an EC50 of under 1 µM. `COC(=O)c1ccc2c(N(C[C@H]3CC[C@H](c4ccc(C)cc4)CC3)C(=O)CC(C)(C)C)nccc2c1` gave an EC50 of under 1 µM.
